{"source": "patent US20230108906A1", "about": "“SUBSTITUTED BICYCLIC AND TRICYCLIC UREAS AND AMIDES, ANALOGUES THEREOF, AND METHODS USING SAME” (Arbutus Biopharma Corporation, priority 2019, published 2023)", "data": [{"system": "HBV rcDNA in HepDE19 cells", "assay": "HepDE19 assay with bDNA quantitation of HBV rcDNA", "assay_type": "cell-based, hepatitis B virus (HBV)", "conditions": "Hepatitis B virus, HepDE19, 168 h, inhibition of rcDNA formation in HepDE19 cells (HepG2 derived), Tet-free medium, 7 day incubation, Quantigene 2.0 bDNA readout, top concentration 25 μM; read-out: DE-19bDNA EC50", "method": "(§1) HepDE19 Assay with bDNA Quantitation of HBV rcDNA:\n(§2) HepDE19 cell culture system is a HepG2 (human hepatocarcinoma) derived cell line that supports HBV DNA replication and cccDNA formation in a tetracycline (Tet)-regulated manner and produces HBV rcDNA and a detectable reporter molecule dependent on the production and maintenance of cccDNA (Guo, et al., 2007, J. Virol. 81:12472-12484).\n(§3) HepDE19 (50,000 cells/well) were plated in 96-well collagen-coated tissue-culture treated microtiter plates in DMEM/F12 medium supplemented with 10% fetal bovine serum, 1% penicillin-streptomycin and 1 μg/mL tetracycline and incubated in a humidified incubator at 37° C. and 5% CO2 overnight. Next day, the cells were switched to fresh medium without tetracycline and incubated for 4 hours at 37° C. and 5% CO2. The cells were treated with fresh Tet-free medium with compounds at concentrations starting at 25 μM and a serial, […], 8-point, titration series in duplicate. The final DMSO concentration in the assay was 0.5%. The plates were incubated for 7 days in a humidified incubator at 37° C. and 5% CO2. Following a 7 day-incubation, the level of rcDNA present in the inhibitor-treated wells was measured using a Quantigene 2.0 bDNA assay kit (Affymetrix, Santa Clara, Calif.) with HBV specific custom probe set and manufacturers instructions. Concurrently, the effect of compounds on cell viability was assessed using replicate plates, plated at a density of 5,000 cells/well and incubated for 4 days, to determine the ATP content as a measure of cell viability using the cell-titer glo reagent (CTG; Promega Corporation, Madison, Wis.) as per manufacturer's instructions. The plates were read using a Victor luminescence plate reader (PerkinElmer Model 1420 Multilabel counter) and the relative luminescence units (RLU) data generated from each well was calculated as % inhibition of the untreated control wells and analyzed using XL-Fit module in Microsoft Excel to determine EC50 and EC90 (bDNA) and CC50 (CTG) values using a 4-parameter curve fitting algorithm.\n(§4) Representative compounds of the disclosure were tested for their abilities to inhibit formation of relaxed circular DNA (rcDNA) in a HepDE19 assay, as described elsewhere herein.", "units": {"EC50": "nM"}, "values": [{"smiles": "CN(C(=O)Nc1ccc(F)c(Cl)c1)C1COC(O)c2[nH]c(=O)c3cc(F)c(F)cc3c21", "note": "(stereo not shown) [Compound 151, 3-(3-Chloro-4-fluorophenyl)-1-(8,9-difluoro-4-hydroxy-6-oxo-1,4,5,6-tetrahydro-2H1-pyrano[3,4-c]isoquinolin-1-yl)-1-methylurea]", "EC50": 20}, {"smiles": "CCN(C(=O)Nc1ccc(F)c(Cl)c1)C1COCc2[nH]c(=O)c3ccc(F)cc3c21", "note": "(stereo not shown) [Compound 74, 3-(3-Chloro-4-fluorophenyl)-1-ethyl-1-(9-fluoro-6-oxo-1,4,5,6-tetrahydro-2H-pyrano[3,4-c]isoquinolin-1-yl)urea]", "EC50": 20}, {"smiles": "CN(C(=O)Nc1ccc(F)c(Cl)c1)[C@@H]1COCc2[nH]c(=O)c3cc(F)ccc3c21", "note": "(single isomer, unassigned) [Compound 41]", "EC50": 10}, {"smiles": "CN(C(=O)Nc1ccc(F)c(Cl)c1)C1COCc2[nH]c(=O)c3sccc3c21", "note": "(stereo not shown) [Compound 95, 3-(3-Chloro-4-fluorophenyl)-1-methyl-1-(6-oxo-1,4,5,6-tetrahydro-2H-pyrano[3,4-b]thieno[3,2-d]pyridin-1-yl)urea]", "EC50": 30}, {"smiles": "CN(C(=O)Nc1ccc(F)c(Cl)c1)[C@@H]1COCc2c1c1cc(F)c(F)cc1c(=O)n2C", "note": "[Compound 243, (S)-3-(3-Chloro-4-fluorophenyl)-1-(8,9-difluoro-5-methyl-6-oxo-1,4,5,6-tetrahydro-2H-pyrano[3,4-c]isoquinolin-1-yl)-1-methylurea]", "EC50": 20}, {"smiles": "CN(C(=O)Nc1ccc(O)c(Cl)c1)[C@@H]1COCc2[nH]c(=O)c3cc(F)c(F)cc3c21", "note": "[Compound 148, (S)-3-(3-Chloro-4-hydroxyphenyl)-1-(8,9-difluoro-6-oxo-1,4,5,6-tetrahydro-2H-pyrano[3,4-c]isoquinolin-1-yl)-1-methylurea]", "EC50": 760}, {"smiles": "CN(C(=O)Nc1ccc(F)c(Cl)c1)C1CC(C)(C)Cc2[nH]c(=O)c3ccccc3c21", "note": "(stereo not shown) [Compound 27, 3-(3-Chloro-4-fluorophenyl)-1-(3,3-dimethyl-6-oxo-1,2,3,4,5,6-hexahydrophenanthridin-1-yl)-1-methylurea]", "EC50": 12000}, {"smiles": "CN(C(=O)Nc1ccc(F)c(Cl)c1)C1CCCc2[nH]c(=O)c3c(c21)COCC3", "note": "(single isomer, unassigned) [Compound 79, 3-(3-Chloro-4-fluorophenyl)-1-methyl-1-(5-oxo-3,4,5,6,7,8,9,10-octahydro-1H-pyrano[4,3-c]quinolin-10-yl)urea]", "EC50": "≥ 25000"}, {"smiles": "CN(C(=O)Nc1ccc(F)c(Cl)c1)[C@H]1COCc2[nH]c(=O)c3cc(F)c(F)cc3c21", "note": "(single isomer, unassigned) [Compound 71]", "EC50": 210}, {"smiles": "CN(C(=O)Nc1ccc(F)c(Cl)c1)C1CCCc2c1c1ccccc1c(=O)n2C", "note": "(stereo not shown) [Compound 31, 3-(3-Chloro-4-fluorophenyl)-1-methyl-1-(5-methyl-6-oxo-1,2,3,4,5,6-hexahydrophenanthridin-1-yl)urea]", "EC50": 260}]}, {"system": "HBV rcDNA in HepDE19 cells", "assay": "HepDE19 assay with bDNA quantitation of HBV rcDNA", "assay_type": "cell-based, hepatitis B virus (HBV)", "conditions": "inhibition of rcDNA formation in HepDE19 cells (HepG2 derived), Tet-free medium, 7 day incubation, Quantigene 2.0 bDNA readout, top concentration 25 μM; read-out: DE-19bDNA EC50", "method": "as §1, §2, §3, §4", "units": {"EC50": "nM"}, "values": [{"smiles": "CN(C(=O)Nc1ccc(F)c(F)c1)C1COCc2[nH]c(=O)c3cc(F)c(F)cc3c21", "note": "(single isomer, unassigned) [Compound 117, 1-(8,9-Difluoro-6-oxo-1,4,5,6-tetrahydro-2H-pyrano[3,4-c]isoquinolin-1-yl)-3-(3,4-difluorophenyl)-1-methylurea]", "EC50": 2700}, {"smiles": "CN(C(=O)Nc1ccc(F)c(C#N)c1)C1CNCc2[nH]c(=O)c3cc(F)c(F)cc3c21", "note": "(single isomer, unassigned) [Compound 175, 3-(3-Cyano-4-fluorophenyl)-1-(8,9-difluoro-6-oxo-1,2,3,4,5,6-hexahydrobenzo[c][1,7]naphthyridin-1-yl)-1-methylurea]", "EC50": 1500}, {"smiles": "CCN(C(=O)Nc1ccc(F)c(Cl)c1)C1CCCc2[nH]c(=O)c3c(c21)CCCC3", "note": "(single isomer, unassigned) [Compound 54, 3-(3-Chloro-4-fluorophenyl)-1-ethyl-1-(6-oxo-1,2,3,4,5,6,7,8,9,10-decahydrophenanthridin-1-yl)urea]", "EC50": 30}, {"smiles": "CCN(C(=O)Nc1ccc(F)c(F)c1)C1CCCc2[nH]c(=O)c3c(c21)CCCC3", "note": "(single isomer, unassigned) [Compound 50, 3-(3,4-Difluorophenyl)-1-ethyl-1-(6-oxo-1,2,3,4,5,6,7,8,9,10-decahydrophenanthridin-1-yl)urea]", "EC50": 6800}, {"smiles": "CNc1nc2c(c3cc(F)c(F)cc13)C(N(C)C(=O)Nc1ccc(F)c(C(F)F)c1)COC2", "note": "(single isomer, unassigned) [Compound 235, 1-(8,9-Difluoro-6-(methylamino)-1,4-dihydro-2H-pyrano[3,4-c]isoquinolin-1-yl)-3-(3-(difluoromethyl)-4-fluorophenyl)-1-methylurea]", "EC50": 1810}, {"smiles": "CN(C(=O)Nc1ccc(F)c(Cl)c1)C1CN(CCO)Cc2[nH]c(=O)c3cc(F)ccc3c21", "note": "(single isomer, unassigned) [Compound 169, 3-(3-Chloro-4-fluorophenyl)-1-(8-fluoro-3-(2-hydroxyethyl)-6-oxo-1,2,3,4,5,6-hexahydrobenzo[c][1,7]naphthyridin-1-yl)-1-methylurea]", "EC50": 6600}, {"smiles": "CC(=O)N1Cc2[nH]c(=O)c3cc(F)ccc3c2C(N(C)C(=O)Nc2ccc(F)c(Cl)c2)C1", "note": "(single isomer, unassigned) [Compound 158, 1-(3-Acetyl-8-fluoro-6-oxo-1,2,3,4,5,6-hexahydrobenzo[c][1,7]naphthyridin-1-yl)-3-(3-chloro-4-fluorophenyl)-1-methylurea]", "EC50": 2300}, {"smiles": "CC(=O)N1Cc2[nH]c(=O)c3cc(F)c(F)cc3c2C(N(C)C(=O)Nc2ccc(F)c(Cl)c2)C1", "note": "(single isomer, unassigned) [Compound 159, 1-(3-Acetyl-8,9-difluoro-6-oxo-1,2,3,4,5,6-hexahydrobenzo[c][1,7]naphthyridin-1-yl)-3-(3-chloro-4-fluorophenyl)-1-methylurea]", "EC50": 12000}, {"smiles": "CN(C(=O)N1Cc2ccc(F)cc2C1)C1CNCc2[nH]c(=O)c3cc(F)c(F)cc3c21", "note": "(single isomer, unassigned) [Compound 224, N-(8,9-Difluoro-6-oxo-1,2,3,4,5,6-hexahydrobenzo[c][1,7]naphthyridin-1-yl)-5-fluoro-N-methylisoindoline-2-carboxamide]", "EC50": "≥ 25000"}, {"smiles": "CN(C(=O)Nc1ccc(F)c(Cl)c1)C1COCc2nc(NCCO)c3cc(F)c(F)cc3c21", "note": "(single isomer, unassigned) [Compound 246, 3-(3-Chloro-4-fluorophenyl)-1-(8,9-difluoro-6-((2-hydroxyethyl)amino)-1,4-dihydro-2H-pyrano[3,4-c]isoquinolin-1-yl)-1-methylurea]", "EC50": 20}, {"smiles": "CC(C)CN(C(=O)Nc1ccc(F)c(C#N)c1)C1COCc2[nH]c(=O)c3cc(F)ccc3c21", "note": "(single isomer, unassigned) [Compound 115, 3-(3-Cyano-4-fluorophenyl)-1-(8-fluoro-6-oxo-1,4,5,6-tetrahydro-2H-pyrano[3,4-c]isoquinolin-1-yl)-1-isobutylurea]", "EC50": 10}, {"smiles": "CN(C(=O)N1Cc2ccc(Br)cc2C1)C1CNCc2[nH]c(=O)c3cc(F)c(F)cc3c21", "note": "(single isomer, unassigned) [Compound 228, 5-Bromo-N-(8,9-difluoro-6-oxo-1,2,3,4,5,6-hexahydrobenzo[c][1,7]naphthyridin-1-yl)-N-methylisoindoline-2-carboxamide]", "EC50": 15000}, {"smiles": "CN(C(=O)Nc1ccc(F)c(Cl)c1)C1CCCc2[nH]c(=O)c3cc(F)c(F)cc3c21", "note": "(stereo not shown) [Compound 38, 3-(3-Chloro-4-fluorophenyl)-1-(8,9-difluoro-6-oxo-1,2,3,4,5,6-hexahydrophenanthridin-1-yl)-1-methylurea]", "EC50": 1000}, {"smiles": "CN(C(=O)Nc1ccc(F)c(C#N)c1)C1CN(CCO)Cc2[nH]c(=O)c3cc(F)c(F)cc3c21", "note": "(single isomer, unassigned) [Compound 181, 3-(3-Cyano-4-fluorophenyl)-1-(8,9-difluoro-3-(2-hydroxyethyl)-6-oxo-1,2,3,4,5,6-hexahydrobenzo[c][1,7]naphthyridin-1-yl)-1-methylurea]", "EC50": "≥ 25000"}, {"smiles": "Cc1cc(NC(=O)N(CC(C)C)C2COCc3[nH]c(=O)c4cc(F)ccc4c32)ccc1F", "note": "(single isomer, unassigned) [Compound 131, 3-(4-Fluoro-3-methylphenyl)-1-(8-fluoro-6-oxo-1,4,5,6-tetrahydro-2H-pyrano[3,4-c]isoquinolin-1-yl)-1-isobutylurea]", "EC50": 10}]}]}
